# Patent US20200347148A1, “METHODS FOR ENHANCING AND MAINTAINING CAR-T CELL EFFICACY” (Bellicum Pharmaceuticals, Inc., priority 2017, published 2020)
# “Also recorded” adds a separate entry of the source.
# Experiments:
# [1] = system: iC9 (inducible caspase-9) safety switch; assay: Rimiducid activation of the iC9 safety switch in CAR-T-treated tumor-bearing NSG mice; assay type: in vivo
# Protocol: Animal Models. To evaluate anti-tumor activity of CD19-targeted CAR-T cells, NSG mice were engrafted with 5×10^5 CD19^+ Raji or Raji-EGFPluc tumor cells by intravenous (i.v.) tail vein injection. After 4 days, variable doses of non-transduced and gene-modified T cells were administered by i.v. (tail) injection. In some experiments, mice were rechallenged with Raji-EGFPluc […] as above. To test CD123-specific CAR-T activity, 1×10^6 CD123^+ THP-1-EGFPluc were engrafted by i.v. injection, followed by infusion of 2.5×10^6 unmodified or CAR-T cells 7 days post-tumor engraftment. iC9 titration experiments were performed by treating Raji tumor-bearing mice with 5×10^6 iC9-CD19.ζ-MC-modified T cells followed by injection of rimiducid 7 days after T cell injection at 0.00005, 0.0005, 0.005, 0.05, 0.5 and 5 mg/kg. To evaluate cytokine-related toxicities, neutralizing antibodies against hIL-6, hIFN-γ and TNF-α or an isotype control antibody (Bio X Cell, West Lebanon, N.H.) were administered by i.p. injection with 100 ug twice weekly. Additional experiments were performed using positively selected CD4^+ and CD8+ iC9-CD19.ζ-MC-modified T cells using CD4 or CD8 microbeads and MACS columns (Miltenyi Biotec). In vivo tumor growth and T cell proliferation was measured by bioluminescence imaging (BLI) by i.p. injection of 150 mg/kg D-luciferin (Perkin Elmer, Waltham, Mass.) and imaged using the IVIS imaging system (Perkin Elmer). Photon emission was analyzed by whole body region-of-interest (ROI) and signal measured as average radiance (photons/second/cm2/steradian).
# While administration of high dose rimiducid (5 mg/kg) allowed the persistence of low level CAR-T cells, titration of rimiducid may permit the retention of more gene-modified T cells while mitigating cytokine-related toxicities. T cells were co-transduced with iC9-CD19.ζ-MC and EGFPluc and administered into Raji-bearing mice. Following the onset of cachexia (>10% body weight loss), a log-titration of rimiducid (5-5×10^−5 mg/kg) was administered as a single i.p. injection (FIG. 6A).
# To further study cachexia associated with administration of iC9-CAR.-MC-modified T cells, the CD19-redirected construct was assayed against CD19^+ Daudi tumors in vivo, and neutralizing antibodies targeting human IL-6, IFN-γ and TNF-α, all of which are cross-reactive with murine cytokine receptors, were administered, and followed by monitoring of mouse weight loss. Here, tumor-bearing mice were treated with 5×10^6 iC9-CD19.ζ-MC transduced T cells and following >10% weight loss, intervention with either a single i.p. dose of rimiducid (0.5 mg/kg) or vehicle, or twice weekly injections of 100 ug per mouse anti-hIFN-γ, hIL-6 or hTNF-α was initiated (FIG. 9A). […] 5×10^6 iC9-CD19.ζ-MC-modified T cells were injected in to Daudi-bearing NSG mice and then treated with 0.5 mg/kg rimiducid after >10% weight loss or with i.p. injections with […] twice per week with an isotype antibody (control) or with neutralizing antibodies against human TNF-α, IL-6 and IFN-γ. Weight recovery was monitored until day 28. […] Thus, cytokine blockade provides a second effective mechanism to resolve the toxicity of this potent approach.
# [2] = Iuliucci J D, et al., J Clin Pharmacol. 2001; cited from earlier work
# [3] = Raji model, 24 hours post-rimiducid
smiles,measurement,setting,value
"CC[C@H](C(=O)N1CCCC[C@H]1C(=O)O[C@H](CCc1ccc(OC)c(OC)c1)c1cccc(OCC(=O)NCCNC(=O)COc2cccc([C@@H](CCc3ccc(OC)c(OC)c3)OC(=O)[C@@H]3CCCCN3C(=O)[C@@H](CC)c3cc(OC)c(OC)c(OC)c3)c2)c1)c1cc(OC)c(OC)c(OC)c1 (relative stereo) [rimiducid, 2-Piperidinecarboxylic acid, 1-[(2S)-1-oxo-2-(3,4,5-trimethoxyphenyl)butyl]-, 1,2-ethanediylbis[imino(2-oxo-2,1-ethanediyl)oxy-3,1-phenylene[(1R)-3-(3,4-dimethoxyphenyl)propylidene]] ester, [2S-[1(R*),2R*[S*[S*[1(R*),2R*]]]]]-(9CI)]",serum concentrations of hTNF-α,"[1]; Daudi model, 0.5 mg/kg single i.p.",significantly reduced
same,CAR-T BLI after rimiducid titration,"[1]; Raji model, 5-5×10^−5 mg/kg single i.p.",reduced in a rimiducid dose-dependent manner
same,"serum cytokine levels (IL-6, IFN-γ, TNF-α) after rimiducid titration",[1]; [3],decreased serum cytokine levels
same,"serum levels of human cytokines (IFN-γ, IL-6) after rimiducid",[1]; [3],reverted to baseline levels
same,resolution of CAR-related toxicity (weight loss),"[1]; Raji model, iC9-CD19.ζ-MC T cells, single 5 mg/kg i.p., 5 mg/kg",promptly resolved toxicity; also recorded: successfully resolved
same,resolution of cachexia,"[1]; THP-1 model, iC9-CD123.ζ-MC T cells, without affecting tumor control",could be resolved
same,safety in healthy volunteers,[2],proven safe
